Measurements published in publication PMC11284787, “Ligand-Directed Labeling of the Adenosine A1 Receptor in Living Cells” (Journal of Medicinal Chemistry, 2024).

Key:
TS-SNAP-A1AR = system: T1, TS-SNAP-A1AR; experiment: SDS-PAGE in-gel fluorescence of labeled TS-SNAP-A1AR; type: cell-based; details: HEK293G TS-SNAP-A1AR cells, 300 nM 11 or 130 nM 12 (then 1 μM Met-Tet-SulfoCy5), 2 h; band at ca. 59.1 kDa
T1 construct: signal peptide of the murine 5HT3A receptor (N); expressed in transfected cells; receptor purified on MagStrep beads after labelling in cells
Description: Figure 3 Molecular pharmacology and biochemical characterization of 11 and 12. NanoBRET ligand-binding data were measured in HEK293 cells stably expressing the human NL-A1AR (A–C) or rat NL-A1AR (D–F). […] Data were normalized to maximal BRET signals in the absence of unlabeled competing ligands (total binding, TB). (C, F) NanoBRET dissociation kinetics experiments with 11 (SulfoCy5) performed in human and rat NL-A1AR HEK293T cells, respectively. Cells were treated with 250 nM 11 (SulfoCy5, lilac open circles) for 5 h and CA200645 (black open triangles) for 2 h. […] TS-SNAP-A1AR was purified and separated on an SDS-PAGEgel gel, and direct Cy5 fluorescence was visualized using in-gel fluorescence. […]
The small reduction in the BRET signal observed toward the end of the reads could be mostly likely ascribed to substrate (furimazine) consumption. […] To confirm covalent labeling of A1AR by 11 and 12, HEK293G cells stably expressing a Twin-Strep-SNAP-A1AR(TS-SNAP-A1R) construct were treated with 11 or 12 prior to purification, separation by sodium dodecyl sulfate-polyacrylamide gel electrophoresis (SDS-PAGE) and visualization of labeled samples by in-gel fluorescence (Figure 3G). […]
Autocorrelation curves (AC) were constructed from fluorescence fluctuation traces and analysed within Zen Black (2012) software. […]

NL-hA2BAR = biological target: T2, NL-hA2BAR (Homo sapiens, UniProt P29275); experiment: NanoBRET competition ligand-binding assay (CA200645 tracer), NL-hA2BAR; details: CA200645 (25 nM) tracer, HEK293T cells, mean ± SEM; read-out: affinity values pKi, NL-hA2BAR (converted)
T2 construct: expressed in transfected cells
T2 sequence (P29275 1-332): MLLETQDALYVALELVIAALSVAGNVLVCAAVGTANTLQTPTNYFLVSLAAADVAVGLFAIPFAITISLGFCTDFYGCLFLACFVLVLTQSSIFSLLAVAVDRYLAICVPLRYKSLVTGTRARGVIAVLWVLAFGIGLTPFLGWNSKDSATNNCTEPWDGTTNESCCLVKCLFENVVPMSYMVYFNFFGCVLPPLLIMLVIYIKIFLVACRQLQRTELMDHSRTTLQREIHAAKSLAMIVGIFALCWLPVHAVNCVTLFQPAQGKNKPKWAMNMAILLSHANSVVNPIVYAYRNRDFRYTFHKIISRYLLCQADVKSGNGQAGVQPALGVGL

SMILES	in-gel Cy5 fluorescence band of SulfoCy5-labeled TS-SNAP-A1AR (TS-SNAP-A1AR)	Ki (NL-hA2BAR)
CCCCn1c(=O)c2[nH]c(C34CCC(C(=O)NCCNC(=O)CCNC(=O)c5ccc(OC(=O)CCCCC[N+]6=C(/C=C/C=C/C=C7/N(C)c8ccc(S(=O)(=O)O)cc8C7(C)C)C(C)(C)c7cc(S(=O)(=O)[O-])ccc76)c(F)c5)(CC3)CC4)nc2n(CCCC)c1=O [Compound 11, 1-(6-(4-((3-((2-(4-(1,3-Dibutyl-2,6-dioxo-2,3,6,7-tetrahydro-1H-purin-8-yl)bicyclo[2.2.2]octane-1-carboxamido)ethyl)amino)-3-oxopropyl)carbamoyl)-2-fluorophenoxy)-6-oxohexyl)-3,3-dimethyl-2-((1E,3E)-5-((E)-1,3,3-trimethyl-5-sulfoindolin-2-ylidene)penta-1,3-dien-1-yl)-3H-indol-1-ium-5-sulfonate]	strong band	–
CCCCn1c(=O)c2[nH]c(C34CCC(C(=O)NCCNC(=O)CCNC(=O)c5ccc(OC(=O)CCC(=O)NCCOCCOCCNC(=O)O[C@H]6CC/C=C/CCC6)c(F)c5)(CC3)CC4)nc2n(CCCC)c1=O [Compound 12, 4-((3-((2-(4-(1,3-Dibutyl-2,6-dioxo-2,3,6,7-tetrahydro-1H-purin-8-yl)bicyclo[2.2.2]octane-1-carboxamido)ethyl)amino)-3-oxopropyl)carbamoyl)-2-fluorophenyl (R,E)-1-(Cyclooct-4-en-1-yloxy)-1,12-dioxo-5,8-dioxa-2,11-diazapentadecan-15-oate]	strong band	813 nM
